Assay results as given in ChEMBL document CHEMBL1201862, “PubChem BioAssay data set” (2004).
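Cultured in 96-well plates, cells were exposed to test compound for 48 hours across five concentrations. GI50: concentration for 50% inhibition of growth.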 Active and inactive are the calls of the source. Cut-off read from the data, not from the text of the source: active = GI50 up to about 1.1 µM and inactive = higher.

Assays:
Experiment in all cases: growth of human tumour cells (NCI), 48 h
K562 = system: K562
MDA-MB-231 = system: MDA-MB-231
TK-10 = system: TK-10
MOLT-4 = system: MOLT-4
NCI-H460 = system: NCI-H460
MCF7 = system: MCF7
T47D = system: T47D
EKVX = system: EKVX
OVCAR-4 = system: OVCAR-4
ACHN = system: ACHN
CCRF-CEM = system: CCRF-CEM
BT-549 = system: BT-549
LOX IMVI = system: LOX IMVI
UACC-62 = system: UACC-62
Hs-578T = system: Hs-578T
HCC 2998 = system: HCC 2998
SK-MEL-28 = system: SK-MEL-28
UACC-257 = system: UACC-257
HCT-15 = system: HCT-15

| SMILES | GI50 (K562) | GI50 (MDA-MB-231) | GI50 (TK-10) | GI50 (MOLT-4) | GI50 (NCI-H460) | GI50 (MCF7) | GI50 (T47D) | GI50 (EKVX) | GI50 (OVCAR-4) | GI50 (ACHN) | GI50 (CCRF-CEM) | GI50 (BT-549) | GI50 (LOX IMVI) | GI50 (UACC-62) | GI50 (Hs-578T) | GI50 (HCC 2998) | GI50 (SK-MEL-28) | GI50 (UACC-257) | GI50 (HCT-15) |
| --- | --- | --- | --- | --- | --- | --- | --- | --- | --- | --- | --- | --- | --- | --- | --- | --- | --- | --- | --- |
| CCCCC/C(C=O)=C\c1ccccc1 | 20.3 µM (inactive) | > 100 µM (inactive) | > 100 µM (inactive) | 65.8 µM (inactive) | > 100 µM (inactive) | > 100 µM (inactive) | > 100 µM (inactive) | > 100 µM (inactive) | > 100 µM (inactive) | > 100 µM (inactive) | 80.4 µM (inactive) | > 100 µM (inactive) | > 100 µM (inactive) | > 100 µM (inactive) | > 100 µM (inactive) | > 100 µM (inactive) | > 100 µM (inactive) | > 100 µM (inactive) | > 100 µM |
| COc1ccc(CCNC2=CC(=O)c3ncccc3C2=O)cc1OC | 2.24 µM (inactive) | 0.789 µM (active) | 24.3 µM (inactive) | 5.05 µM (inactive) | 0.394 µM (active) | 1.38 µM (inactive) | 5.09 µM (inactive) | 5.5 µM (inactive) | 2.47 µM (inactive) | 3.67 µM (inactive) | 5.9 µM (inactive) | 1.3 µM (inactive) | 0.426 µM (active) | 0.435 µM (active) | 1.19 µM (inactive) | 1.94 µM (inactive) | 1.47 µM (inactive) | 1.19 µM (inactive) | 0.918 µM |
| COC(=O)c1ccccc1C1CN=NC12Cc1cccc(C)c1C2=O (configuration not stated) | 53.1 µM (inactive) | > 100 µM (inactive) | 65.9 µM (inactive) | 32.8 µM (inactive) | 88.1 µM (inactive) | 43 µM (inactive) | 16.6 µM (inactive) | 65.6 µM (inactive) | 33 µM (inactive) | 35.3 µM (inactive) | 52.7 µM (inactive) | 42.4 µM (inactive) | 55 µM (inactive) | 34.7 µM (inactive) | 40.4 µM (inactive) | > 100 µM (inactive) | 68.2 µM (inactive) | 37.3 µM (inactive) | 46.5 µM |
| COc1ccc(Nc2nc(N)c(C(=O)c3ccco3)s2)cc1 | 4.72 µM (inactive) | > 88.1 µM (inactive) | 10.8 µM (inactive) | 3.61 µM (inactive) | 13.7 µM (inactive) | 6.81 µM (inactive) | > 60.5 µM (inactive) | > 58.3 µM (inactive) | > 48.1 µM (inactive) | 47.8 µM (inactive) | 5.47 µM (inactive) | > 67.8 µM (inactive) | 32.5 µM (inactive) | 45.8 µM (inactive) | 22.4 µM (inactive) | 15.7 µM (inactive) | > 88.7 µM (inactive) | 41.7 µM (inactive) | 6.58 µM |
| CCOC(=O)c1cccc(/N=N/c2ncc(/C=C/C(=O)OC)[nH]2)c1 | 20.9 µM (inactive) | 36.7 µM (inactive) | 26.5 µM (inactive) | 6.97 µM (inactive) | 14.3 µM (inactive) | 21.6 µM (inactive) | 29.3 µM (inactive) | 27.7 µM (inactive) | 17.9 µM (inactive) | 22 µM (inactive) | 6 µM (inactive) | 34.8 µM (inactive) | 15.3 µM (inactive) | 21.5 µM (inactive) | 39.9 µM (inactive) | 17.9 µM (inactive) | 27 µM (inactive) | 16.2 µM (inactive) | 9.59 µM |
| COC(=O)C(=O)CC(=O)c1cccc(OC)c1 | > 100 µM (inactive) | > 100 µM (inactive) | 78.3 µM (inactive) | > 100 µM (inactive) | > 100 µM (inactive) | > 100 µM (inactive) | > 100 µM (inactive) | > 100 µM (inactive) | > 100 µM (inactive) | > 100 µM (inactive) | > 100 µM (inactive) | > 100 µM (inactive) | > 100 µM (inactive) | > 100 µM (inactive) | > 100 µM (inactive) | > 100 µM (inactive) | > 100 µM (inactive) | > 100 µM (inactive) | > 100 µM |
| CN(C)CC[N+](C)(C)[BH2-]C(O)O | > 100 µM (inactive) | > 100 µM (inactive) | > 100 µM (inactive) | > 100 µM (inactive) | > 100 µM (inactive) | > 100 µM (inactive) | > 100 µM (inactive) | > 100 µM (inactive) | > 100 µM (inactive) | > 100 µM (inactive) | > 100 µM (inactive) | > 100 µM (inactive) | > 100 µM (inactive) | > 100 µM (inactive) | > 100 µM (inactive) | > 100 µM (inactive) | > 100 µM (inactive) | > 100 µM (inactive) | > 100 µM |
| C=C(C)[C@@H]1CC[C@]2(C(=O)O)CC[C@]3(C)[C@H](CC[C@@H]4[C@@]5(C)CC(=O)C(C)(C)[C@@H]5CC[C@]43C)[C@@H]12 | 6.38 µM (inactive) | 5.65 µM (inactive) | 11 µM (inactive) | 4.98 µM (inactive) | 4.95 µM (inactive) | 6.64 µM (inactive) | 14.9 µM (inactive) | 9.35 µM (inactive) | 15 µM (inactive) | 7.53 µM (inactive) | 0.574 µM (active) | 10.3 µM (inactive) | 8.36 µM (inactive) | 3.28 µM (inactive) | 9.48 µM (inactive) | 5.9 µM (inactive) | 8.11 µM (inactive) | 7.55 µM (inactive) | 8.67 µM |
